Test systems include A549; ACHN; BT-549; CAKI-1; COLO 205; Hs-578T; IGROV-1; KM12; M14; Malme-3M; NCI-H226; NCI-H522; OVCAR-5; OVCAR-8; PC-3; SF-539; SK-MEL-28; SNB-75; UACC-257.
What all share (assay): inhibition of tumour cell growth, NCI panel, 48 h

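Briefly, cells in 96-well plates were exposed to five compound concentrations for 48 h, and endpoints were estimated by linear interpolation. Abbreviation: GI50, concentration required for 50% inhibition of growth.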 The source made the active and inactive calls. Cut-off read from the data, not from the text of the source: active = GI50 up to about 1.1 µM and inactive = higher. Where only a bound is given, the exact number is not on record here.

The results in this text go back to ChEMBL document CHEMBL1201862, “PubChem BioAssay data set” (2004).

In the case of `COc1cc(C[C@@H](C)N)cc(OC)c1`, the GI50 in the test with A549, in the test on ACHN, in the test on BT-549, in the test on CAKI-1, in the test with COLO 205 and in the test with Hs-578T was > 100 µM (inactive) in each case. Moreover, the GI50 with IGROV-1, in the test with KM12, with M14, in the test on Malme-3M, in the test on NCI-H226 and with NCI-H522 was > 100 µM (inactive) throughout. Further, the GI50 was > 100 µM (inactive) in the test with OVCAR-5; > 100 µM (inactive) with OVCAR-8; > 100 µM (inactive) with PC-3; > 100 µM (inactive) in the test on SF-539; > 100 µM (inactive) in the test on SK-MEL-28; 21.8 µM (inactive) in the test on SNB-75. Further, the GI50 with UACC-257 was > 100 µM (inactive).

Turning to `Nc1cc2c(c3ccccc13)C(CCl)CN2C(=O)c1cc2cc(NC(=O)Nc3ccc4[nH]c(C(=O)N5CC(CCl)c6c5cc(N)c5ccccc65)cc4c3)ccc2[nH]1` (stereo not drawn), the GI50 in the test with A549 is 0.0478 µM (active); in the test on ACHN it was < 0.01 µM (active); in the test on BT-549, 0.776 µM (active); in the test on CAKI-1 it was < 0.01 µM (active); in the test on COLO 205, 0.687 µM (active); in the test on Hs-578T, 1.35 µM (inactive). In addition, the GI50 in the test on IGROV-1 was 0.256 µM (active); in the test on KM12, 1.08 µM (active); with M14 it was < 0.0303 µM (active); in the test on Malme-3M, 0.412 µM (active); in the test on NCI-H226, 0.275 µM (active); in the test with NCI-H522 it was 0.0509 µM (active). In addition, the GI50 in the test with OVCAR-5 was 0.612 µM (active); in the test on OVCAR-8, 0.0678 µM (active); in the test with PC-3 it was 0.171 µM (active); in the test with SF-539, 0.0194 µM (active); with SK-MEL-28, 0.659 µM (active); in the test on SNB-75, 0.0297 µM (active). The GI50 with UACC-257 is 1.16 µM (inactive).

As for `CCOC(=O)/C=C(/C(=O)OCC)n1cc(C)c(=O)n(Cc2cn(COCCOC(C)=O)nn2)c1=O`, the GI50 in the test with A549 was > 100 µM (inactive); in the test with ACHN, 7.06 µM (inactive); with BT-549, 19.9 µM (inactive); in the test on CAKI-1, 9.59 µM (inactive); with COLO 205, 7.82 µM (inactive); with Hs-578T, 26.3 µM (inactive). In addition, the GI50 in the test with IGROV-1 was 17.2 µM (inactive); in the test on KM12 it was 23.1 µM (inactive); in the test with M14, 46 µM (inactive); in the test with Malme-3M it was 11 µM (inactive); with NCI-H226, 21.1 µM (inactive); in the test with NCI-H522 it was 2.49 µM (inactive). For the same molecule, the GI50 in the test with OVCAR-5 was 27.8 µM (inactive); in the test with OVCAR-8, 16.2 µM (inactive); in the test with PC-3, 37.3 µM (inactive); with SF-539, 15.9 µM (inactive); with SK-MEL-28, 19.8 µM (inactive); in the test with SNB-75, 33.2 µM (inactive). Also, the GI50 in the test on UACC-257 was 20.7 µM (inactive).

In the case of `Clc1ccc2c(NCCCCN3OC3c3ccccc3)ccnc2c1` (stereo not drawn), the GI50 in the test with A549 was 5.62 µM (inactive); in the test with ACHN, 9.44 µM (inactive); with BT-549, 13.4 µM (inactive); with CAKI-1, 8.77 µM (inactive); in the test with COLO 205, 2.86 µM (inactive); in the test on Hs-578T, 14.6 µM (inactive). For the same molecule, the GI50 in the test on IGROV-1 was 9.27 µM (inactive); in the test with KM12 it was 7.5 µM (inactive); in the test with M14, 3.23 µM (inactive); with Malme-3M, 8.41 µM (inactive); with NCI-H226 it was 18.4 µM (inactive); in the test on NCI-H522, 6.41 µM (inactive). Moreover, the GI50 in the test on OVCAR-5 was 14.4 µM (inactive); in the test on OVCAR-8, 3.71 µM (inactive); in the test on PC-3, 13.3 µM (inactive); in the test with SF-539, 1.98 µM (inactive); in the test with SK-MEL-28, 3.64 µM (inactive); in the test with SNB-75 it was 5.82 µM (inactive). The GI50 in the test with UACC-257 is 18.1 µM (inactive).

As to `CCCCCCCCCCCC[C@H](O)[C@H]1CC[C@H]([C@H](O)CCCC[C@H](O)CCCCC[C@@H](O)CC2=C[C@H](C)OC2=O)O1`, the GI50 in the test with A549 is 2.34 µM (inactive); in the test with ACHN, 1.08 µM (active); in the test with BT-549, 0.0026 µM (active); in the test on CAKI-1, 6.24 µM (inactive); in the test with COLO 205, 4.21 µM (inactive); in the test on Hs-578T, 5.43 µM (inactive). Besides, the GI50 in the test on IGROV-1 is 3.98 µM (inactive); in the test on KM12 it was 3.51 µM (inactive); in the test on M14, 3.45 µM (inactive); in the test on Malme-3M, 17.9 µM (inactive); with NCI-H226 it was 2.84 µM (inactive); in the test on NCI-H522 it was 5.21 µM (inactive). Moreover, the GI50 was 17.7 µM (inactive) in the test on OVCAR-5; 2.26 µM (inactive) in the test on OVCAR-8; 3.1 µM (inactive) in the test on PC-3; 15.3 µM (inactive) in the test on SF-539; 4.51 µM (inactive) with SK-MEL-28; 4.99 µM (inactive) in the test with SNB-75. For the same molecule, the GI50 in the test on UACC-257 was 0.407 µM (active).

Regarding `CC1(C)CCC2(C(=O)OC3OC(CO)C(O)C(O)C3O)CCC3(CO)C(=CCC4C5(C)CC(O)C(O)C(C)(C(=O)OC6OC(CO)C(O)C(O)C6O)C5CCC43C)C2C1` (stereo not drawn), the GI50 in the test on A549, with ACHN, with BT-549, with CAKI-1, in the test with COLO 205 and in the test with Hs-578T was > 100 µM (inactive) each time. The GI50 in the test with IGROV-1, with KM12, in the test on M14, with Malme-3M, in the test on NCI-H226 and with NCI-H522 was > 100 µM (inactive) in each case. The GI50 in the test with OVCAR-5, with OVCAR-8, with PC-3, in the test on SF-539, with SK-MEL-28 and in the test on SNB-75 was > 100 µM (inactive) in each case. Further, in the test with UACC-257, the GI50 is > 100 µM (inactive).

For `C[C@@H]1CC[C@@]2(OC1)O[C@H]1C[C@H]3[C@@H]4CC[C@H]5C[C@@H](OC6OC(CO)C(OC7OC(CO)C(O)C(OC8OCC(O)C(O)C8O)C7OC7OC(CO)C(O)C(O)C7O)C(O)C6O)[C@H](O)C[C@]5(C)[C@H]4CC[C@]3(C)[C@H]1[C@@H]2C` (stereo partly drawn), the GI50 in the test with A549 is 0.855 µM (active); in the test on ACHN, 2.75 µM (inactive); in the test with BT-549, 2.94 µM (inactive); with CAKI-1 it was 2.21 µM (inactive); in the test on COLO 205 it was 2.46 µM (inactive); in the test with Hs-578T, 5.75 µM (inactive). Moreover, the GI50 was 2.16 µM (inactive) in the test on IGROV-1; 8 µM (inactive) with KM12; 15.2 µM (inactive) in the test on M14; 15.2 µM (inactive) in the test with Malme-3M; 6.47 µM (inactive) in the test with NCI-H226; 0.426 µM (active) in the test on NCI-H522. For the same molecule, the GI50 with OVCAR-5 is 4.76 µM (inactive); with OVCAR-8, 2.97 µM (inactive); in the test on PC-3, 3.15 µM (inactive); in the test with SF-539, 2.69 µM (inactive); in the test on SK-MEL-28, 15.4 µM (inactive); in the test on SNB-75, 13.6 µM (inactive). Also, in the test with UACC-257, the GI50 is 18.1 µM (inactive).
